Test: not given
Settings: octanol/water

In order of falling logP:
1. CC1=C(C/C=C(\C)CCC[C@H](C)CCC[C@H](C)CCCC(C)C)C(=O)c2ccccc2C1=O [PHYTONADIONE]  11.71
2. C=C1CC[C@H](O)C/C1=C/C=C1\CCC[C@]2(C)[C@@H]([C@H](C)/C=C/[C@H](C)C(C)C)CC[C@@H]12 [ERGOCALCIFEROL]  10.44
3. C=C1CC[C@H](O)C/C1=C/C=C1\CCC[C@]2(C)[C@@H]([C@H](C)CCCC(C)C)CC[C@@H]12 [CHOLECALCIFEROL]  10.24
4. ClC(Cl)C(Cl)(Cl)Cl [PENTACHLOROETHANE]  3.627
5. C[C@@H]1O[C@@H](OC[C@H]2O[C@@H](Oc3c(-c4ccc(O)c(O)c4)oc4cc(O)cc(O)c4c3=O)[C@H](O)[C@@H](O)[C@@H]2O)[C@H](O)[C@H](O)[C@H]1O [RUTIN]  -2.02

Test: physchem
Settings: octanol/water

In order of falling logP:
1. CC(C)CCC[C@@H](C)[C@H]1CC[C@H]2C3=CC=C4C[C@@H](O)CC[C@]4(C)[C@H]3CC[C@]12C  8.65
2. CC1=C(/C=C/C(C)=C/C=C/C(C)=C/CO)C(C)(C)CC=C1 [VITAMIN A2]  7.41
3. Cc1c(C)c2c3ccccc3ccc2c2ccccc12  6.96
4. Clc1cc(-c2ccccc2)c(Cl)c(Cl)c1Cl  6.88
5. Clc1cc(Cl)c(-c2ccccc2Cl)cc1Cl  6.88
6. CCc1c2ccccc2cc2c1ccc1ccccc12  6.84
7. c1ccc2c(c1)ccc1cc3ccc4ccccc4c3cc12  6.84
8. c1ccc2c(c1)ccc1cc3c(ccc4ccccc43)cc12  6.84
9. Cc1ccc2c3ccccc3c3cccc4ccc1c2c43  6.77
10. c1cc2ccc3ccc4ccc5cccc6c(c1)c2c3c4c56  6.58
11. CCCCCCCCCCC  6.51
12. Clc1c(Cl)c(Cl)c(Cl)c(Cl)c1Cl [PERCHLOROBENZENE]  6.42
13. c1cc2c3c(c4ccc5ccccc5c4cc3c1)CC2 [CHOLANTHRENE]  6.42
14. Cc1cc2ccccc2c2ccc3ccccc3c12  6.31
15. Cc1c2ccccc2cc2c1ccc1ccccc12  6.31
16. Cc1c2ccccc2cc2ccc3ccccc3c12  6.31
17. Cc1cccc2ccc3cc4ccccc4cc3c12  6.31
18. Cc1cc2c3ccccc3ccc2c2ccccc12  6.31
19. Clc1cc(Cl)c(-c2ccccc2)c(Cl)c1  6.17
20. Clc1ccc(-c2ccccc2Cl)c(Cl)c1  6.17
21. Clc1cc(Cl)c(-c2ccccc2)cc1Cl  6.17
22. c1cc2cccc3c4cccc5cccc(c(c1)c23)c54  6.12
23. c1ccc2c(c1)c1cccc3ccc4cccc2c4c31 [BENZO[E]PYRENE]  6.12
24. c1ccc2c(c1)cc1ccc3cccc4ccc2c1c34  6.12
25. c1ccc2c3c(ccc2c1)-c1cccc2cccc-3c12 [BENZO(J)FLUORANTHENE]  6.12
26. c1ccc2c(c1)-c1cccc3c1c-2cc1ccccc13 [BENZO[B]FLUORANTHENE]  6.12
27. c1ccc2cc3c(cc2c1)-c1cccc2cccc-3c12 [BENZO(K)FLUORANTHENE]  6.12
28. Cc1c(C)c(C)c(C)c(C)c1C [HEXAMETHYLBENZENE]  6.04
29. CCCCCCCCCC [DECANE]  5.98
30. Cc1c2ccccc2c(C)c2ccccc12  5.79
31. Clc1cc(Cl)c(Cl)c(Cl)c1Cl [PENTACHLOROBENZENE]  5.71
32. c1ccc2cc3c(ccc4ccccc43)cc2c1  5.66
33. c1ccc2cc3cc4ccccc4cc3cc2c1  5.66
34. c1ccc2c(c1)ccc1c3ccccc3ccc21  5.66
35. c1ccc2c(c1)c1ccccc1c1ccccc21  5.66
36. Clc1ccc(-c2ccccc2Cl)cc1  5.46
37. Clc1ccc(Cl)c(-c2ccccc2)c1  5.46
38. CCCCCCCCC [NONANE]  5.46
39. Clc1cccc(Cl)c1-c1ccccc1  5.46
40. c1ccc2c(c1)Cc1cc3ccccc3cc1-2 [BENZO[B]FLUORENE]  5.4
41. c1ccc2c(c1)Cc1c-2ccc2ccccc12 [BENZO(A)FLUORENE]  5.4
42. Cc1cc(C)c(C)c(C)c1C  5.39
43. Cc1ccc(C)c2c(C)cccc12  5.26
44. Clc1ccc2c(ccc3ccccc32)c1  5.2
45. Cc1ccc2c(ccc3ccccc32)c1  5.14
46. Cc1ccc2cc3ccccc3cc2c1  5.14
47. Cc1c2ccccc2cc2ccccc12  5.14
48. Clc1cc(Cl)c(Cl)c(Cl)c1  4.99
49. c1cc2ccc3cccc4ccc(c1)c2c34 [PYRENE]  4.95
50. c1ccc2c(c1)-c1cccc3cccc-2c13 [FLUORANTHENE]  4.95
51. CCCCCCCC [OCTANE]  4.93
52. c1ccc(CCc2ccccc2)cc1  4.89
53. Cc1cccc2c1Cc1ccccc1-2  4.87
54. Clc1ccccc1-c1ccccc1  4.74
55. Cc1ccc(C)c(C)c1C  4.74
56. Clc1cc(Cl)c(Cl)cc1Cl  4.74
57. Cc1cc(C)c(C)cc1C  4.74
58. CCCCc1ccccc1 [BUTYLBENZYL]  4.74
59. Cc1cc(C)c(C)c(C)c1  4.74
60. CCC(C)(C)c1ccccc1 [tert-Amylbenzene]  4.65
61. Cc1ccc2cc(C)ccc2c1  4.61
62. Cc1ccc(C)c2ccccc12  4.61
63. Cc1cccc2c(C)cccc12  4.61
64. Cc1cc2ccccc2cc1C  4.61
65. CC(C)CC(C)(C)C  4.54
66. c1ccc2c(c1)ccc1ccccc12  4.49
67. CCc1cccc2ccccc12  4.49
68. C1CCCCCCC1 [CYCLOOCTANE]  4.47
69. CCCCCCC [HEPTANE]  4.4
70. Cc1ccc(C(C)C)cc1 [P-CYMENE]  4.37
71. Clc1cccc(Cl)c1Cl  4.28
72. Clc1ccc(Cl)c(Cl)c1  4.28
73. Clc1cc(Cl)cc(Cl)c1 [1,3,5-TRICHLOROBENZENE]  4.28
74. CCCCC(C)C  4.27
75. c1ccc2c(c1)Cc1ccccc1-2 [FLUORENE]  4.22
76. CC(C)(C)c1ccccc1 [tert-Butylbenzene]  4.12
77. CCCCCCCCl  4.11
78. Cc1cccc(C)c1C  4.09
79. Cc1ccc(C)c(C)c1  4.09
80. Cc1cc(C)cc(C)c1  4.09
81. c1cc2c3c(cccc3c1)CC2  4.07
82. Clc1cccc2ccccc12  4.03
83. c1ccc(-c2ccccc2)cc1 [BIPHENYL]  4.03
84. Clc1ccc2ccccc2c1  4.03
85. C1C2CC3CC1CC(C2)C3  3.98
86. Cc1cccc2ccccc12  3.96
87. Cc1ccc2ccccc2c1  3.96
88. C1CCCCCC1 [CYCLOHEPTANE]  3.91
89. Brc1ccc(Br)cc1  3.87
90. CCCCCC [HEXANE]  3.87
91. CCCc1ccccc1  3.85
92. CCCC(C)C  3.74
93. CC(C)c1ccccc1 [ISOPROPYLBENZENE]  3.72
94. CC(=O)Oc1cc(C)c(OC(C)=O)c2ccccc12 [ACETOMENAPHTHONE]  3.59
95. Brc1ccccc1Br  3.59
96. CCCCCCCl  3.58
97. Clc1ccccc1Cl [1,2-DICHLOROBENZENE]  3.57
98. Clc1cccc(Cl)c1  3.57
99. Clc1ccc(Cl)cc1 [1,4-DICHLOROBENZENE]  3.57
100. Cc1ccc(Cl)cc1  3.5
101. Cc1cccc(Cl)c1  3.5
102. Cc1ccccc1Cl  3.5
103. Cc1ccc(C)cc1 [P-XYLENE]  3.44
104. Cc1cccc(C)c1 [M-XYLENE]  3.44
105. Cc1ccccc1C [O-XYLENE]  3.44
106. C1CCCCC1 [CYCLOHEXANE]  3.35
107. CCCCC [PENTANE]  3.34
108. CCc1ccccc1 [ETHYLBENZENE]  3.32
109. c1ccc2ccccc2c1  3.32
110. CCC(C)C  3.21
111. CCCCCCl  3.05
112. ClC(Cl)=C(Cl)Cl [TETRACHLOROETHYLENE]  3.02
113. ClC(Cl)(Cl)Cl [CARBON TETRACHLORIDE]  2.88
114. Clc1ccccc1 [CHLOROBENZENE]  2.85
115. CCCC [BUTANE]  2.81
116. C1=CCCCC1 [CYCLOHEXENE]  2.81
117. C=CCCC  2.79
118. C1CCCC1 [CYCLOPENTANE]  2.79
119. Cc1cc(O)c2ccccc2c1O [VITAMIN K3H2]  2.76
120. ClC(Cl)C(Cl)Cl [1,1,2,2-TETRACHLOROETHANE]  2.64
121. CCCCCl [BUTYL CHLORIDE]  2.52
122. CC(Cl)(Cl)Cl [TRICHLOROETHANE]  2.48
123. FC(Cl)(Cl)Cl [TRICHLOROMONOFLUOROMETHANE]  2.44
124. C=CCC  2.27
125. ClC=C(Cl)Cl [TRICHLOROETHYLENE]  2.27
126. C1=CCCC1 [CYCLOPENTENE]  2.25
127. CCCCl  1.99
128. CCSCC [DIETHYL SULFIDE]  1.9
129. BrCCBr [1,2-DIBROMOETHANE]  1.74
130. Cl/C=C/Cl  1.51
131. CCCl [ETHYL CHLORIDE]  1.47
132. ClCCCl [1,2-DICHLOROETHANE]  1.46
133. CSC  0.842
134. O=C(O)CCCC[C@@H]1SC[C@@H]2NC(=O)N[C@@H]21 [BIOTIN]  0.39
135. C[S+](C)CC[C@H](N)C(=O)O [METHYLMETHIONINE SULFONIUM CHLORIDE]  0.28
136. NC1=C2NCN=C2N=CN1 [VITAMIN B4]  -0.09
137. Nc1ncnc2c1ncn2[C@@H]1O[C@H](COP(=O)(O)O)[C@@H](O)[C@H]1O [ADENOSINE PHOSPHATE]  -1.68
138. CC(C)(CO)[C@@H](O)C(=O)NCCC(=O)O [PANTOTHENIC ACID]  -1.69
139. Nc1nc2ncc(CNc3ccc(C(=O)N[C@@H](CCC(=O)O)C(=O)O)cc3)nc2c(=O)[nH]1 [FOLIC ACID]  -2.81
140. Cc1ncc(C[n+]2csc(CCO)c2C)c(N)n1 [THIAMINE ION]  -3.93

— ChEMBL document CHEMBL1795329, “QSPR modeling of octanol/water partition coefficient for vitamins by optimal descriptors calculated with SMILES” (Eur J Med Chem, 2008)
